Patent US20090270390A1, “PYRIMIDINE DERIVATIVES” (AstraZeneca, priority 2006, published 2009)

Columns and labels:
[1] = system: phosphorylation of Serine 473 in Akt in MDA-MB-468 human breast adenocarcinoma cell line; assay: In vitro phospho-Ser473 Akt assay, Test (c); assay type: cell-based; conditions: MDA-MB-468 cells, read-out: IC50 (inhibition of Serine 473 phosphorylation in Akt)
Protocol: This assay determines the ability of test compounds to inhibit phosphorylation of Serine 473 in Akt as assessed using Acumen Explorer technology (TTP LabTech Limited, Royston, Herts, SG8 6EE, UK), a plate reader that can be used to rapidly quantitate features of images generated by laser-scanning.
A MDA-MB-468 human breast adenocarcinoma cell line (LGC Promochem, Teddington, Middlesex, UK, Catalogue No. HTB-132) was routinely maintained at 37° C. with 5% CO2 up to a confluency of 70-90% in DMEM containing 10% FCS and 1% L-glutamine.
For the assay, the cells were detached from the culture flask using ‘Accutase’ (Innovative Cell Technologies Inc., San Diego, Calif., USA; Catalogue No. AT104) using standard tissue culture methods and resuspended in media to give 5.5×10^4 cells per ml. Aliquots (90 μl) were seeded into each of the inner 60 wells of a black ‘Costar’ 96-well plate (Corning Inc., NY, USA; Catalogue No. 3904) to give a density of ˜5000 cells per well. Aliquots (90 μl) of culture media were placed in the outer wells to prevent edge effects. [An alternative cell handling procedure involved the maintenance of the cells in a ‘SelecT’ robotic device (The Automation Partnership, Royston, Herts SG8 5WY, UK). Cells were resuspended in media to give 5×10^4 cells per ml. Aliquots (100 μl) were seeded into the wells of a black ‘Costar’ 96-well plate.] […]

p110α Type Ia human PI3K = biological target: T1, p110α Type Ia human PI3K (Homo sapiens, UniProt P42336); assay: In vitro PI3K enzyme assay (AlphaScreen), Test (a); assay type: biochemical; conditions: read-out: IC50 versus p110α Type Ia human PI3K
T1 construct: full length DNA of each of the p110α, p110β and p110δ Type Ia human PI3K p110 isoforms; 6-His; made in house; Grp1 PH domain made in E. coli
Text: The assay used AlphaScreen technology (Gray et al., Analytical Biochemistry, 2003, 313: 234-245) to determine the ability of test compounds to inhibit phosphorylation by recombinant Type I PI3K enzymes of the lipid PI(4,5)P2.
DNA fragments encoding human PI3K catalytic and regulatory subunits were isolated from cDNA libraries using standard molecular biology and PCR cloning techniques. The selected DNA fragments were used to generate baculovirus expression vectors. In particular, full length DNA of each of the p110α, p110β and p110δ Type Ia human PI3K p110 isoforms (EMBL Accession Nos. HSU79143, S67334, Y10055 for p110α, p110β and p110δ respectively) were sub-cloned into a pDEST10 vector (Invitrogen Limited, Fountain Drive, Paisley, UK). The vector is a Gateway-adapted version of Fastbac 1 containing a 6-His epitope tag. […]
Biotinylated-DiC8-PI(3,4,5)P3 (50 nM; Cell Signals Inc., Catalogue No. 107), recombinant purified GST-Grp1 PH protein (2.5 nM) and AlphaScreen Anti-GST donor and acceptor beads (100 ng; Packard Bioscience Limited, Station Road, Pangbourne, Berkshire, UK, Catalogue No. 6760603M) were added and the assay plates were left for about 5 to 20 hours at room temperature in the dark. The resultant signals arising from laser light excitation at 680 nm were read using a Packard AlphaQuest instrument. […]

T1 sequence (P42336 whole entry, the tested form may be a part, canonical isoform): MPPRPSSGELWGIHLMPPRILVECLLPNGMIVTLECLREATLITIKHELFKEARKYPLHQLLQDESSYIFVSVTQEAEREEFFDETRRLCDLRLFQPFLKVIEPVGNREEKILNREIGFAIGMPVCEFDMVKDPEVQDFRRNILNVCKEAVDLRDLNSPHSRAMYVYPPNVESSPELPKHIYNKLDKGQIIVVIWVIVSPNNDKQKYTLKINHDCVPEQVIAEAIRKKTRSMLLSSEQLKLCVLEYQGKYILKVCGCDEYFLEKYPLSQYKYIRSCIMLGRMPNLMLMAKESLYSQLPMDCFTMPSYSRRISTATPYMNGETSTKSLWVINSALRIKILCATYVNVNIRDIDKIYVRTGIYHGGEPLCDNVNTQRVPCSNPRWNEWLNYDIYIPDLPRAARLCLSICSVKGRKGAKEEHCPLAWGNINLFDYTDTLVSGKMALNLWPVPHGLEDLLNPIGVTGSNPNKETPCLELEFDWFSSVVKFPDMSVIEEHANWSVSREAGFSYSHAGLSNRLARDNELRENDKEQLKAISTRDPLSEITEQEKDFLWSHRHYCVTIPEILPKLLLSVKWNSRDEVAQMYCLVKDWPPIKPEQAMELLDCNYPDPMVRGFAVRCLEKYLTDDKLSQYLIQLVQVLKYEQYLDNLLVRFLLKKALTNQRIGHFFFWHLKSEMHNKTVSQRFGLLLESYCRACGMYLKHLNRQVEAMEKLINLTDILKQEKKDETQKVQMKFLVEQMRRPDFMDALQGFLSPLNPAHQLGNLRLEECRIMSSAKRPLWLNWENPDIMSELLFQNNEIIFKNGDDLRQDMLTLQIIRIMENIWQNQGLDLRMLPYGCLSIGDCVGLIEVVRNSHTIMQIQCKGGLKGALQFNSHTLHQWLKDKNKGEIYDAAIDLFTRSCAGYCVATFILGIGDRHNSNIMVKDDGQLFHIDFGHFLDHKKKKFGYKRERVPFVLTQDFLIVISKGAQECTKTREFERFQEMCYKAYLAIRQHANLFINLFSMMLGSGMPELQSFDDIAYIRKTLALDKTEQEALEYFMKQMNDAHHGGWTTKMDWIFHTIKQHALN
T1 sequence (P27986 whole entry partner, the tested form may be a part, canonical isoform): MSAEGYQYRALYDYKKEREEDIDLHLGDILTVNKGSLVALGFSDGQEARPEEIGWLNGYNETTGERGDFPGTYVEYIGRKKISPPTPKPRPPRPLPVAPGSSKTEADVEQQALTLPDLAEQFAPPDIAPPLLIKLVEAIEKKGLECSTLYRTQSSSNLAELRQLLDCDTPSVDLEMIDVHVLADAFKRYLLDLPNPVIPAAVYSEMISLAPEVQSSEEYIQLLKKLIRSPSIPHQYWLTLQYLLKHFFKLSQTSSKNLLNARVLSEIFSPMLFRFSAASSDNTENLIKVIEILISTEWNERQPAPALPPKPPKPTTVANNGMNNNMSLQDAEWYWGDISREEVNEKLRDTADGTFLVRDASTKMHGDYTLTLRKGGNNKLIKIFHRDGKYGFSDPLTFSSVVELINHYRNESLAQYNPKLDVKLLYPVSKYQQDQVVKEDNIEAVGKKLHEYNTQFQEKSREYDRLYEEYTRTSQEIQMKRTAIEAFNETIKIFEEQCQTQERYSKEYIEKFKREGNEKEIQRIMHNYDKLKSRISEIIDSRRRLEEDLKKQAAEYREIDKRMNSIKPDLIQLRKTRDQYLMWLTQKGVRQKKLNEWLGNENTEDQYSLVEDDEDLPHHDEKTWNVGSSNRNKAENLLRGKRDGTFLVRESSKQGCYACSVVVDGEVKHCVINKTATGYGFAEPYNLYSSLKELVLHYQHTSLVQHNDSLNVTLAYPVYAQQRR

Compound: NCC(=O)N1CCN(c2cc(N3CCOCC3)nc(-n3c(C(F)F)nc4ccccc43)n2)CC1 [Example 1, 2-(2-difluoromethylbenzimidazol-1-yl)-4-(4-glycylpiperazin-1-yl)-6-morpholinopyrimidine]
- IC50 [1]: ~10 nM
- IC50 (p110α Type Ia human PI3K): ~100 nM
